Measurements as given in US20220089600A1, “TGFß INHIBITOR AND PRODRUGS” (FUNDACIÓ INSTITUT DE RECERCA BIOMÈDICA (IRB BARCELONA), priority 2018, published 2022).

Columns and labels:
[1] = tested on: NTCF4-ER^T2 fusion protein in LS174T cells; experiment: Co-culture LS174T-NTCF4-ER^T2 gene expression assay; type: cell-based; conditions: HEK293T negative for LigF, 1 μM, 16h
Method: These LS-NE cells were cultured in DMEM supplemented with L-glutamine and 10% fetal bovine serum (Life Technologies) at 37° C. and 5% CO2.
HEK293T cells transduced with pLenti PGK-LigF (puro) or with an equivalent empty vector were co-plated with LS174T-NTCF4-ER^T2 (LS-NE) cells, in a ratio of 1/10 in 6-well plates. Co-cultures were treated with DMSO, 1 μM Z-4-OHT or the prodrug of formula VII at 1 or 10 μM. After 16h, cells were lysed in trizol for RNA extraction (PureLink RNA Mini Kit, Life Technologies) and cDNA preparation (High Capacity cDNA RT kit, Applied Biosysytems). […] Data in FIG. 11 were normalized to the housekeeping gene, and to DMSO controls. Data are the average of technical replicates (+SD) from a single experiment.

[2] = molecular target: T1, Cre-ER^T2 fusion protein in MEFs (Homo sapiens, UniProt P03372, G400V/L544A/M543A/V595A); experiment: Co-culture MEF recombination assay (mTmG reporter, FACS); type: cell-based, mouse; conditions: UbC-Cre-ER^T2; mTmG MEFs with LigF-expressing MTO129, 1000 to 1 nM, two days
T1 construct: Cre recombinase (fusion partner); host or cells: mouse embryonic fibroblasts from UbC-Cre-ER^T2; mTmG transgenic mice; the other entry of the earlier key: cre (P06956, Recombinase cre)
T1 sequence (P03372 with tags, fused parts or gaps G400V/M543A/L544A/V595A): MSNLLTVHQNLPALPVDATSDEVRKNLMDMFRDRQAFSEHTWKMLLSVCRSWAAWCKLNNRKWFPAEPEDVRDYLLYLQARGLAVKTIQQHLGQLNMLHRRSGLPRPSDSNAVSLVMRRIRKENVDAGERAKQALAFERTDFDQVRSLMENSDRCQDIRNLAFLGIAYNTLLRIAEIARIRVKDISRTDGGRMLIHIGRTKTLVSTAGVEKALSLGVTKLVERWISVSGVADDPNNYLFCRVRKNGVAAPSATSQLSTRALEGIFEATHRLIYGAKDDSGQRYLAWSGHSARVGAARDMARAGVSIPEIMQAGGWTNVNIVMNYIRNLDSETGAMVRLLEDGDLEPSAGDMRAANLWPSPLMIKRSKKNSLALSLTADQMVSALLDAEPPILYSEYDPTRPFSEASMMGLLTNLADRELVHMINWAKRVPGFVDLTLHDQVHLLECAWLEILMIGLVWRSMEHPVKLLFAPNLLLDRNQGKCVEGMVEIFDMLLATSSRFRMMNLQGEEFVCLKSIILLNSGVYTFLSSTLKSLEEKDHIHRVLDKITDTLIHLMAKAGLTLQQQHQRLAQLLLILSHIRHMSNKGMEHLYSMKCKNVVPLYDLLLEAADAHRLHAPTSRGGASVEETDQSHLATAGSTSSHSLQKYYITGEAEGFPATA
Description: The mouse model carries recombination reporter mTmG (JAX stock: 007676). This system expresses the membrane bound tdTomato (tandem dimer tomato; mT stands for membrane Tomato), which is a red fluorescent protein. Upon recombination with an activated Cre enzyme, the coding sequence for mT as well as a stop codon, being between loxP sites, is excised. […] Effectively this means that in the presence of a Cre enzyme, or in the presence of a 4-OHT activated Cre-ER^T2 fusion protein, the cells stop their production of tdTomato and proceed to express the EGFP; this genetic switch can be efficiently quantified by flow cytometry analysis. The mouse strain expressing mTmG was then crossed to a mouse carrying a Cre-ER^T2 fusion protein in all cells (UbC-Cre-ER^T2; Jax Stock: 008085). From the dual transgenic mouse, as well as from the reporter strain without Cre-ER^T2, MEFs were harvested from 14-day-old embryos. Briefly, pregnant females were sacrificed 14 days after plug formation, uteri were removed, and embryos were dissected: heads and fetal livers were discarded. The rest was minced and digested with trypsin and grown in 10-cm plates with aforementioned supplemented DMEM.
MEF recombination: MTO129, transduced with pLenti PGK-LigF (puro) or with an equivalent empty vector was trypsinized and single cells added onto UbC-Cre-ER^T2; mTmG (or control mTmG-only) MEFs grown in 12-well plates. The next day, either Z-4-OHT or the prodrug of formula VII was added in concentrations ranging from 1000 to 1 nM. Two days later, cells were trypsinized and analyzed by flow cytometry for TdTomato/EGFP fluorescence (Gallios, Beckman Coulter). Fluorescence was analyzed on viable cells in 2 dimensions and scored as percentages in the 4 quadrants. EGFP positive quadrants (Q2 and Q4, with or without TdTomato) were considered recombined and the fraction of the total was calculated. Data are the average (+SD) from two independent experiments.

[3] = molecular target: T2, human ALK5 (Homo sapiens, UniProt P36897); experiment: KinaseProfiler enzymatic activity inhibition; type: biochemical; conditions: KinaseProfiler, 9-point curve, top 10 μM; read-out: Enzyme activity inhibition IC50 (nM) ALK5 (TGFBR1)
T2 construct: purchased Eurofins (Kinase Profiler service)
T2 sequence (P36897 34-503): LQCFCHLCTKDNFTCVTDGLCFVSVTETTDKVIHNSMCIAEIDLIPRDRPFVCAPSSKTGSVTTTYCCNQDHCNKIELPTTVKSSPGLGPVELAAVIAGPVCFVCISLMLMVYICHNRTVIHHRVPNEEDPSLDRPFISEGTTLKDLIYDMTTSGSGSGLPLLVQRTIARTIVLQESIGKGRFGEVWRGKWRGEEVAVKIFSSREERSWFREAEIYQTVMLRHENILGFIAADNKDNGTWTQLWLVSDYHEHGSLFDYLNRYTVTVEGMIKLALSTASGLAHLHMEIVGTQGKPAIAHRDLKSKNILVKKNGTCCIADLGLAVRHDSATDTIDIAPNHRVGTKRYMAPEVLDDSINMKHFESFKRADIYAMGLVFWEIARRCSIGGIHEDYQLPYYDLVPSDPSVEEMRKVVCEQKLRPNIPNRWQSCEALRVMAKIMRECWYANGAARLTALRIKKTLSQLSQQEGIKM
Method: Briefly, human ALK5 was incubated with 8 mM MOPS pH 7.0, 0.2 mM EDTA, 1 mM MnCl2, 2 mg/mL casein, 10 mM MgAcetate and [γ-33P-ATP] (specific activity approx. 500 cpm/pmol, concentration as required). The reaction was initiated by the addition of the MgATP mix. After incubation for 40 minutes at room temperature, the reaction was stopped by the addition of a 3% phosphoric acid solution. 10 μL of the reaction was then spotted onto a P30 filtermat and washed three times for 5 minutes in 75 mM phosphoric acid and once in methanol prior to drying and scintillation counting.
Compounds were tested using a 9-point curve with half-Log serial dilutions. The top concentration tested was 10 μM. Test compounds were prepared in 100% DMSO.

[4] = tested on: MTO129 liver metastases; experiment: Mouse liver metastasis initiation/formation assay with MTOs; type: in vivo; conditions: FIG. 13, 1× dose
Description: Mouse tumor organoids (MTOs) are derived from compound transgenic mice (conditional mutations in Apc, Kras, Trp53 and Tgfbr2, as well as bearing Lgr5-EGFP/CreER^T2) of the C57BL6/J strain and cultured as described in Tauriello et al. 2018 Nature 554(7693): 538-543. doi: 10.1038/nature25492. Organoids are tumor epithelial cells grown in a 3D matrix where they adopt an organotypic architecture, typically as spheroids with a lumen. In this way, cells retain a relatively normal polarity (which means that the outside surface, inside/luminal surface and cell-cell contacts are individually specialized), which is more physiological than in conventional 2D cell culture.
In all experiments described in present invention MTO129 were used (Tauriello et al. Nature. 2018).
In patients, treatment doses were reduced to 80 to 150 mg b.i.d in a regime of 14 days on-14 days off.
MTOs expressing a luciferase reporter were measured by bioluminescence imaging, using retroorbital injection of 50 μl 15 mg/ml D-luciferin potassium salt (Resem BV). Photons per second from the region spanning thorax/abdomen were quantified and normalized to the measure at the day of injection.
Control mice were treated with 150 μl of vehicle.
In the experiment shown in FIG. 13, potency of the indicated compounds to inhibit metastasis formation was assessed. Mice were treatments with indicated compounds started two days after MTO129 transplantation and continued during two weeks. Mice were sacrificed at 4 weeks post transplantation and liver metastases (LiMs) were counted by eye on fixed livers.

NTCF4-ER^T2 fusion protein in LS174T cells, sequence (P03372 282-595 G400V/M543A/L544A limits assumed): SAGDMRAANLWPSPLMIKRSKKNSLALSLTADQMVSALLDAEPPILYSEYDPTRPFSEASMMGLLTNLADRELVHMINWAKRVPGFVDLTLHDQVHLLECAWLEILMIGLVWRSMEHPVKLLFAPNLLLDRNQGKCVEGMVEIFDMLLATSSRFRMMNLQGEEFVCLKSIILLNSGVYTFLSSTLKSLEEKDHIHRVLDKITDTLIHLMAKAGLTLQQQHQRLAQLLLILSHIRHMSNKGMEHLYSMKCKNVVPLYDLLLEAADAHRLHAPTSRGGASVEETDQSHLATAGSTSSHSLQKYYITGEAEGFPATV

IC50 [3] [nM]	Compound	transcriptional switch (KRT20 up, ASCL2 down) [1]	gene recombination in MEFs (fraction EGFP positive) [2]	activity in preventing liver metastasis formation, in words [4]
320	Oc1ccc2c(-c3c(-c4ccccn4)nn4c3CCC4)ccnc2c1 [Reference compound 337, 4-(2-pydridin-2-yl-5,6-dihydro-4H-pyrrolo[1,2-b]pyrazol-3-yl)-quinolin-7-ol, reference compound]	–	–	–
371	Cc1cccc(-c2nn3c(c2-c2ccnc4cc(O)ccc24)CCC3)n1 [Reference compound 338, 4-[2-(methyl-pyridin-2-yl) 5,6-dihydro-4H-pyrrolo[1,2-b]pyrazol-3-yl]-quinolin-7-ol, reference compound]	–	–	–

The next lines start with the compound.

Compound	IC50 [3] [nM]	transcriptional switch (KRT20 up, ASCL2 down) [1]	gene recombination in MEFs (fraction EGFP positive) [2]	activity in preventing liver metastasis formation, in words [4]
4-hydroxytamoxifen [4-OHT, reference compound]	–	able to induce the transcriptional switch	dose-dependent gene recombination	–
COc1cc(C(=O)COc2ccc3nccc(-c4c(-c5cccc(C)n5)nn5c4CCC5)c3c2)ccc1O [prodrug of formula III, 1-(4-hydroxy-3-methoxyphenyl)-2-((4-(2-(6-methylpyridin-2-yl)-5,6-dihydro-4H-pyrrolo[1,2-b]pyrazol-3-yl)quinolin-6-yl)oxy)ethan-1-one]	836	–	–	–
Cc1cccc(-c2nn3c(c2-c2ccnc4ccc(OC(=O)N5CCC(N6CCCCC6)CC5)cc24)CCC3)n1 [prodrug of formula IV, 4-(2-(6-methylpyridin-2-yl)-5,6-dihydro-4H-pyrrolo[1,2-b]pyrazol-3-yl)quinolin-6-yl [1,4′-bipiperidine]-1′-carboxylate]	2280	–	–	more robustly than galunisertib
